According to patent publication US11046720B2, “Dimethylphosphine oxide compound” (GUIZHOU INOCHINI TECHNOLOGY CO., LTD, priority 2018, dated 2021):
pIC50: −log10 of the molar value.

The compounds below were run against T1, LRRK2 full-length human recombinant protein (Homo sapiens, UniProt Q5S007) (assay: In vitro evaluation of LRRK2 kinase inhibitory activity (HTRF / TR-FRET, LRRKtide)). Settings: 57 μM ATP, 0.4 uM Fluorescein-ERM (LRRKtide) peptide.
T1 construct: express LRRK2 full-length human recombinant protein in Sf9 cells of insects; GST; made in house; host or cells: Sf9 insect cells (baculovirus)
Type: biochemical
Experimental: Experimental purpose: to detect transfer of energy signals (ratio of fluorescence signals: […]) after the phosphate group of phosphorylated Fluorescein-ERM (LRRKtide) peptide binds with LanthaScreen® Tb-pERM (pLRRKtide) antibody using homogeneous time-resolved fluorescence. Calculate IC50 for LRRK2 inhibition of the compound to be assayed.
1. Reaction solution: 10 mM 4-(2-hydroxyethyl) piperazine-1-ethanesulfonic acid (pH 7.5); 2 mM magnesium chloride; 0.5 mM glycol-bis-(2-aminoethylether)-N; 0.002% primary alcohol ethoxylate, 1 mM dithiothreitol and 1% DMSO;
2. Assay solution: TR-FRET Dilution Buffer;
3. LRRK2 human recombinant protein: use GST tag and baculovirus to express LRRK2 full-length human recombinant protein in Sf9 cells of insects;
4. Substrate: 0.4 uM Fluorescein-ERM (LRRKtide) peptide; 57 uM ATR
Resonance energy transfer of Fluorescein-ERM (LRRKtide) peptide and LanthaScreen® Tb-pERM (pLRRKtide) antibody between […].
1. Add DMSO solution of the compound to be assayed through the Echo550 non-contact nano-liter acoustic droplet ejection system;
2. Prepare mixed solution of enzyme and polypeptide with freshly prepared reaction solution. Add the mixed solution to the reaction cavity and warm it up at room temperature for 20 minutes in advance;
3. Add 57 μM ATP to initiate reaction, which lasts for 90 minutes at room temperature;
4. Add fluorescein-ERM (LRRKtide) peptide, LanthaScreen® Tb-pERM (pLRRKtide) antibody and 10 mM ethylene diamine tetraacetic acid to the assay system. The reaction lasts for 60 minutes at room temperature. Detect yellow light signals with Em/Ex 520/485.
5. Measure enzyme activity inhibition relative to DMSO blank control group according to the signal ratio, and calculate IC50 by fitting curves with the software XLfit5.

T1 sequence (Q5S007 whole entry): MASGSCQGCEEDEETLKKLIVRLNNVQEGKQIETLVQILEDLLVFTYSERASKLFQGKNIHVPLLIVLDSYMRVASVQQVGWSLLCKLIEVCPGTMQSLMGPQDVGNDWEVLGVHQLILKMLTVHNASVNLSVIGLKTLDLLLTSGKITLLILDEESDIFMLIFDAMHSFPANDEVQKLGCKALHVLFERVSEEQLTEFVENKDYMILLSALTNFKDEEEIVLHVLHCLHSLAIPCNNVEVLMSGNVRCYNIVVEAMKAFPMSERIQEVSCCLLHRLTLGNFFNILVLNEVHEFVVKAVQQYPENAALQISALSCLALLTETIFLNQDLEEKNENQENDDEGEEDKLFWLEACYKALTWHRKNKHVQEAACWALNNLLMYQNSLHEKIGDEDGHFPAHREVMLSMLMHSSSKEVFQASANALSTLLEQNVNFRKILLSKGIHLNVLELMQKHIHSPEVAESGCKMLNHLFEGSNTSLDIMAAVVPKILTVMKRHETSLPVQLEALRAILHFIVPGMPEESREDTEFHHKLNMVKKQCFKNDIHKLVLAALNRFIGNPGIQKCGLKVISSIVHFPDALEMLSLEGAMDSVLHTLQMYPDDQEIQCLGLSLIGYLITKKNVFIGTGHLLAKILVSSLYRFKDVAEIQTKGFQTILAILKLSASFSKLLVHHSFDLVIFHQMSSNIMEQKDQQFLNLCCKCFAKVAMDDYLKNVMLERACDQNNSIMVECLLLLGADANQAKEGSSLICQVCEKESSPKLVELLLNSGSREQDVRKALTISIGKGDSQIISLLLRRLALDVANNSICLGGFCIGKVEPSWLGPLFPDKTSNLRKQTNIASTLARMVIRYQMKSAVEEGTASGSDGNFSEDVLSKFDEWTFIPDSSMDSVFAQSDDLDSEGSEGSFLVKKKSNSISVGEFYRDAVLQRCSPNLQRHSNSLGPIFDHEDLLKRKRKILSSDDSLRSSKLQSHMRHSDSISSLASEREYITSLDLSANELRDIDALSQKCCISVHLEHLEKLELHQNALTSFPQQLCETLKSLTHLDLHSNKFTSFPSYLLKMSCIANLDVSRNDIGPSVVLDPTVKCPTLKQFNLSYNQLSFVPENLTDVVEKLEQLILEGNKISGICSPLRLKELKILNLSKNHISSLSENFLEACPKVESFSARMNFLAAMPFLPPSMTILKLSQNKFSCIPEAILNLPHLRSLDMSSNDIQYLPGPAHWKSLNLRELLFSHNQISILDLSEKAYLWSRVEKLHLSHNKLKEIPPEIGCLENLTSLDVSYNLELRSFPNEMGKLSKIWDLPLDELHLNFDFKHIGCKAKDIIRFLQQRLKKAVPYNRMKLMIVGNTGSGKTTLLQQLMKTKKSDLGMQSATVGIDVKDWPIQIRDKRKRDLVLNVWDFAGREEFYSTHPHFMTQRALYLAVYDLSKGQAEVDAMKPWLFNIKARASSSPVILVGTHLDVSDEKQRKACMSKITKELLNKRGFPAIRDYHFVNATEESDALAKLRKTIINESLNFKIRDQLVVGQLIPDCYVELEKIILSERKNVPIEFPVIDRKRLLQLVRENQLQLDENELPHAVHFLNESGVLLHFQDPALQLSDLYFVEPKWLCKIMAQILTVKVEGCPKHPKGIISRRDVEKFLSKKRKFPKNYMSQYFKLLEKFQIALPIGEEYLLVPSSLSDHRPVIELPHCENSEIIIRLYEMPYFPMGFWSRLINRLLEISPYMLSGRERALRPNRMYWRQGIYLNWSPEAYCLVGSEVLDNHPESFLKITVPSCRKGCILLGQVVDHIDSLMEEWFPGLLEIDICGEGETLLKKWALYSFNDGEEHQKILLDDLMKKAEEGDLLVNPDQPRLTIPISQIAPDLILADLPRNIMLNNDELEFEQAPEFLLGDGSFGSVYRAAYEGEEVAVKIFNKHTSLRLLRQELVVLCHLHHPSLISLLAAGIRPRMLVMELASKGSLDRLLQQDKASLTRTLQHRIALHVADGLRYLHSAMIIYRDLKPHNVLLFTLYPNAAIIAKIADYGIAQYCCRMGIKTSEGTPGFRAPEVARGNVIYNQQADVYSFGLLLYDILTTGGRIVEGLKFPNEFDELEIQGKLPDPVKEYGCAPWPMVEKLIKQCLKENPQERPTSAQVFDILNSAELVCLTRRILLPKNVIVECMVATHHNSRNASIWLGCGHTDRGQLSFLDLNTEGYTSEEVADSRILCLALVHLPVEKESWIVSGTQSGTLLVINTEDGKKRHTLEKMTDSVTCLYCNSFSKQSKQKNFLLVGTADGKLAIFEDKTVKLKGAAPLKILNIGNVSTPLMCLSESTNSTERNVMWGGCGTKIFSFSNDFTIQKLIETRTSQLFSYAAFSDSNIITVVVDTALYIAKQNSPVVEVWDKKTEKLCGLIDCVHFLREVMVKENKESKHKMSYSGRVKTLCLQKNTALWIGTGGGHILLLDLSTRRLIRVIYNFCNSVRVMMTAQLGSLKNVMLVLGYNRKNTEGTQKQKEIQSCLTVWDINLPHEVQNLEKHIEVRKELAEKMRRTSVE

In order of falling pIC50:
1. COc1c(Nc2ncc(Cl)c(Nc3ccccc3P(C)(C)=O)n2)ccnc1N1CC2(CCOC2)C1 [Embodiment 20]  8.80
2. COc1c(Nc2ncc(Cl)c(Nc3ccccc3P(C)(C)=O)n2)ccnc1N1CC2(COC2)C1 [Embodiment 22]  8.59
3. COc1nc(N2CC3(CCCOC3)C2)ccc1Nc1ncc(Cl)c(Nc2ccccc2P(C)(C)=O)n1 [Embodiment 6]  8.54
4. COc1ncc(N2CC3(COC3)C2)cc1Nc1ncc(Cl)c(Nc2ccccc2P(C)(C)=O)n1 [Embodiment 18]  8.34
5. COc1nc(N2CCC3(CCOCC3)CC2)ccc1Nc1ncc(Cl)c(Nc2ccccc2P(C)(C)=O)n1 [Embodiment 8]  8.14
6. COc1nc(N2CC3(CCCCO3)C2)ccc1Nc1ncc(Cl)c(Nc2ccccc2P(C)(C)=O)n1 [Embodiment 7]  8.07
7. COc1ncc(N2CC3(CCOC3)C2)cc1Nc1ncc(Cl)c(Nc2ccccc2P(C)(C)=O)n1 [Embodiment 16]  7.97
8. COc1ncc(N2CC3(CCOCC3)C2)cc1Nc1ncc(Cl)c(Nc2ccccc2P(C)(C)=O)n1 [Embodiment 19]  7.92
9. COc1nc(N2CCC3(CCOCC3)C2)ccc1Nc1ncc(Cl)c(Nc2ccccc2P(C)(C)=O)n1 [Embodiment 10]  7.67
10. COc1ncc(N2CCC3(CCOCC3)C2)cc1Nc1ncc(Cl)c(Nc2ccccc2P(C)(C)=O)n1 [Embodiment 17]  7.56
11. COc1c(Nc2ncc(Cl)c(Nc3ccccc3P(C)(C)=O)n2)ccnc1N1CC2(CCC2)C1 [Embodiment 21]  7.43

What follows are compounds tested on LRRK2 phosphorylation in brain tissues (assay: In vivo pharmacological experiment: LRRK2 phosphorylation in brain tissues of mice (western blot)). Settings: oral, 10 mg/kg, once, 1 hour after administration.
Design: species or system C57BL/6J mice
Experimental: Animals: C57BL/6J mice (male, 6-7 weeks old, weight: 20 g-22 g).
Grouping: Weigh all mice one day ahead of the experiment and divide them into 6 groups at random according to their weight, with 4 mice in each group. Exclude too heavy and too light mice, to ensure that average weight of all groups is the same.
The animals of each group are orally administered menstruum or the compound to be assayed in chronological order as shown in Table 4. One mouse is administered every 2 minutes. 1 hour after administration, all animals are successively euthanized with carbon dioxide in chronological order.
(1) After protein determination of brain tissue samples by BCA, apply 4% to 15% precast gel in an equal amount of protein samples.
(3) Perform protein electrophoresis at 200 V for 30 minutes. Then, use Midi PVDF Transfer Packs for membrane transfer for 7 minutes. Next, block them with TBS Blocker at room temperature for 1 hour.
(4) Prepare 5% milk with skimmed milk powder. Then, formulate antibodies P-LRRK2 (add 20 μl antibody to 5 mL 5% milk at 1:250), total-LRRK2 (add 10 μl antibody to 5 ml 5% skimmed milk at 1:500), p-Rabl0 (add 10 μl antibody to 5 mL 5% skimmed milk at 1:500) and p-actin (add 5 μl antibody to 5 mL 5% milk at 1:1000), and incubate the antibodies overnight. (5) Recycle the primary antibodies and rinse membranes with TBS for three times, 10 minutes each time. […]

In the case of `CCNc1nc(Nc2cc(F)c(C(=O)N3CCOCC3)cc2OC)ncc1C(F)(F)F` [GNE-7915], the “inhibition of LRRK2 phosphorylation in brain tissues” value was “inhibits FRRK2 phosphorylation”.

What follows are compounds tested against T2, LRRK2 (pSer935) (Homo sapiens, UniProt Q5S007) (assay: In vitro evaluation of inhibitory activity for LRRK2 cell (pSer935), 293T cells transfected with pcmv-flag-lrrk2, MSD). Settings: not given.
T2 construct: expressed in transfected cells; host or cells: 293T cells
Type: cell-based
Experimental: Take 293T cells out of liquid nitrogen and put them in water at 37° C. After ice has fully thawed, transfer the cells to 5 mL warm culture medium. Discard the supernatant through centrifugation, and culture the suspended cells in the culture medium as new cells.
Culture the 293T cells in the culture medium for two to three days.
Plant 1.4×10^6/293T cells on a culture plate. After two days of culturing, cells will multiply to 5×10^6, so planting cells on N+1 plates is enough for performing experiments on N 96-well plates.
1) Add 5 μl (0.5 μg/μl) pcmv-flag-Irrk2 to 145 μl DMEM culture medium, and mix them evenly with a straw;
6) Incubate the culture plate inside a humidified incubator with 5% carbon dioxide for 20 to 24 hours at 37° C.
3. (Day 3) Plant the 293T Cells on the 96-Well Plate;
3) Transfer 50 μl inhibitor containing culture medium to the cell culture plate;
4) Incubate the culture plate inside a humidified incubator with 5% carbon dioxide for 20 to 24 hours at 37° C.;
5) Extract 300 μl inhibitor containing culture medium with a dropper. Take 200 μl inhibitor containing culture medium and add 100 μl decomposer into the culture medium. After the plate has been sealed, it shall be shaken for 30 minutes at 4° C.
1) Add 2 μg/25 μl labeled antibody to the MSD plate to incubate for 2 hours; (50 μl 3.9 μg/μl Flag antibody+2.5 ml fetal bovine serum per plate). Maintain centrifugation for 10 s (1,000 rpm);
5) Transfer 12.5 μl lysis buffer and 12.5 μl cell lysis buffer to the MSD plate to incubate for 1 hour at room temperature;
7) Dilute ps935 antibody at 1:200, and add 25 μl antibody to incubate for 1 hour;
9) Dilute goat anti-rabbit antibody at 1:500, and add 25 μl antibody to the incubation plate to incubate for 1 hour;
13) After incubation for about 3 minutes, read data over 15 minutes.

T2 sequence (Q5S007 whole entry): as above

In order of rising pIC50:
1. COc1ncc(N2CC3(COC3)C2)cc1Nc1ncc(Cl)c(Nc2ccccc2P(C)(C)=O)n1 [Embodiment 18]  7.06
2. COc1c(Nc2ncc(Cl)c(Nc3ccccc3P(C)(C)=O)n2)ccnc1N1CC2(COC2)C1 [Embodiment 22]  7.36
3. COc1c(Nc2ncc(Cl)c(Nc3ccccc3P(C)(C)=O)n2)ccnc1N1CC2(CCOC2)C1 [Embodiment 20]  7.66
4. COc1nc(N2CC3(CCCCO3)C2)ccc1Nc1ncc(Cl)c(Nc2ccccc2P(C)(C)=O)n1 [Embodiment 7]  7.96
5. COc1nc(N2CC3(CCCOC3)C2)ccc1Nc1ncc(Cl)c(Nc2ccccc2P(C)(C)=O)n1 [Embodiment 6]  8.48
